The text below walks through data of patent publication US11330821B2, “Herbicidal compounds” (Syngenta Participations AG, priority 2015, dated 2022).

Format in all cases: in vivo
What all share (settings): post-emergence spray, evaluated after 13 days

One assay has as its system Solanum nigrum (SOLNI). In words: Post-emergence efficacy, Solanum nigrum. The method, then:
(§1) B1 Post-Emergence Efficacy
(§2) Seeds of a variety of test species are shown in standard soil in pots:—Solanum nigrum (SOLNI), Amaranthus retroflexus (AMARE), Setaria faberi (SETFA), Echinochloa crus-galli (ECHCG), Ipomoea hederacea (IPOHE), Lolium perenne (LOLPE). After 8 days cultivation (post-emergence) under controlled conditions in a glasshouse (at 24/16° C., day/night; 14 hours light; 65% humidity), the plants are sprayed with an aqueous spray solution derived from the formulation of the technical active ingredient in acetone/water (50:50) solution containing 0.5% Tween 20 (polyoxyethylene sorbitan monolaurate, CAS RN 9005-64-5). Compounds are applied at 1000 and 62.5 g/ha. The test plants are then grown in a glasshouse under controlled conditions in a glasshouse (at 24/16° C., day/night; 14 hours light; 65% humidity) and watered twice daily. After 13 days, the test is evaluated for the percentage damage caused to the plant. The biological activities are assessed on a five point scale (5=80-100%; 4=60-79%; 3=40-59%; 2=20-39%; 1=0-19%).

Assay [1] relates to Ipomoea hederacea (IPOHE). In words: Post-emergence efficacy, Ipomoea hederacea. Here is the method:
as §1, §2

Assay [2] deals with Amaranthus retroflexus (AMARE). In words: Post-emergence efficacy, Amaranthus retroflexus. Here is the method:
as §1, §2

Another assay relates to Lolium perenne (LOLPE). In words: Post-emergence efficacy, Lolium perenne. The method, then: as §1, §2
For another assay, the system named is Setaria faberi (SETFA). As to the kind of experiment: Post-emergence efficacy, Setaria faberi. The method, then: as §1, §2
In assay [3] the test system is Echinochloa crus-galli (ECHCG). As to the kind of experiment: Post-emergence efficacy, Echinochloa crus-galli. Here is the method: as §1, §2

Molecules are shown by their SMILES.

`CC1=NN(C)C(=O)C(c2c(Cl)ccc(Cl)c2OCc2cnc(Cl)s2)C1=O` (stereo not drawn) [Compound 1.19, 4-[3,6-dichloro-2-[(2-chlorothiazol-5-yl)methoxy]phenyl]-2,6-dimethyl-pyridazine-3,5-dione]: the “SOLNI percentage damage caused to the plant (five point scale)” value (“SOLNI percentage damage caused” below) in the assay with Solanum nigrum (SOLNI) (62.5 g/ha) and in the assay on Solanum nigrum (SOLNI) (1000 g/ha) was 5 (5=80-100%) in each case. The “IPOHE percentage damage caused to the plant (five point scale)” value (“IPOHE percentage damage caused” for short) in assay [1] (62.5 g/ha) and in assay [1] (1000 g/ha) was 5 (5=80-100%) throughout. For the same compound, the “AMARE percentage damage caused to the plant (five point scale)” value (from here on “AMARE percentage damage caused”) in assay [2] (62.5 g/ha) and in assay [2] (1000 g/ha) was 5 (5=80-100%) each time. The “LOLPE percentage damage caused to the plant (five point scale)” value (from here on “LOLPE percentage damage caused”) with Lolium perenne (LOLPE) (62.5 g/ha) and in the assay with Lolium perenne (LOLPE) (1000 g/ha) was 5 (5=80-100%) throughout. The “SETFA percentage damage caused to the plant (five point scale)” value (from here on “SETFA percentage damage caused”) in the assay with Setaria faberi (SETFA) (62.5 g/ha) and in the assay with Setaria faberi (SETFA) (1000 g/ha) was 5 (5=80-100%) in each case. Further, the “ECHCG percentage damage caused to the plant (five point scale)” value (from here on “ECHCG percentage damage caused”) in assay [3] (62.5 g/ha) is 3 (3=40-59%); in assay [3] (1000 g/ha) it was 5 (5=80-100%).

`Cc1cnc(COc2c(Cl)ccc(Cl)c2-c2c(O)c(C)nn(C)c2=O)cn1` [Compound 1.21]: the “SOLNI percentage damage caused” value in the assay on Solanum nigrum (SOLNI) (62.5 g/ha) was 3 (3=40-59%); in the assay with Solanum nigrum (SOLNI) (1000 g/ha), 4 (4=60-79%). For the same compound, the “IPOHE percentage damage caused” value in assay [1] (62.5 g/ha) was 4 (4=60-79%); in assay [1] (1000 g/ha) it was 5 (5=80-100%). The entries for the “AMARE percentage damage caused” value in assay [2] (62.5 g/ha) and in assay [2] (1000 g/ha) were 2 (2=20-39%) and 3 (3=40-59%), respectively. For the same compound, the “LOLPE percentage damage caused” value is on record as 1 (1=0-19%) in the assay with Lolium perenne (LOLPE) (62.5 g/ha) and 2 (2=20-39%) in the assay on Lolium perenne (LOLPE) (1000 g/ha). Also, the “SETFA percentage damage caused” value with Setaria faberi (SETFA) (62.5 g/ha) was 3 (3=40-59%); in the assay on Setaria faberi (SETFA) (1000 g/ha), 5 (5=80-100%). Also, the “ECHCG percentage damage caused” value is on record as 1 (1=0-19%) in assay [3] (62.5 g/ha) and 4 (4=60-79%) in assay [3] (1000 g/ha).

As to `Cc1nn(C)c(=O)c(-c2c(F)ccc(Cl)c2OCc2cccnc2)c1O` [Compound 1.23], the “SOLNI percentage damage caused” value with Solanum nigrum (SOLNI) (62.5 g/ha) is reported as 4 (4=60-79%); in the assay with Solanum nigrum (SOLNI) (1000 g/ha) it was 5 (5=80-100%). Further, the “IPOHE percentage damage caused” value in assay [1] (62.5 g/ha) is reported as 4 (4=60-79%); in assay [1] (1000 g/ha) it was 5 (5=80-100%). The “AMARE percentage damage caused” value in assay [2] (62.5 g/ha) is 4 (4=60-79%); in assay [2] (1000 g/ha), 5 (5=80-100%). In addition, the “LOLPE percentage damage caused” value in the assay with Lolium perenne (LOLPE) (62.5 g/ha) was 2 (2=20-39%); in the assay with Lolium perenne (LOLPE) (1000 g/ha), 5 (5=80-100%). Further, the entries for the “SETFA percentage damage caused” value in the assay on Setaria faberi (SETFA) (62.5 g/ha) and with Setaria faberi (SETFA) (1000 g/ha) were 2 (2=20-39%) and 5 (5=80-100%), respectively. Further, the “ECHCG percentage damage caused” value in assay [3] (62.5 g/ha) was 2 (2=20-39%); in assay [3] (1000 g/ha) it was 5 (5=80-100%).

As for `Cc1nn(C)c(=O)c(-c2c(F)ccc(Cl)c2OCc2ccncc2)c1O` [Compound 1.24], the “SOLNI percentage damage caused” value is on record as 4 (4=60-79%) with Solanum nigrum (SOLNI) (62.5 g/ha) and 5 (5=80-100%) in the assay with Solanum nigrum (SOLNI) (1000 g/ha). The “IPOHE percentage damage caused” value in assay [1] (62.5 g/ha) was 4 (4=60-79%); in assay [1] (1000 g/ha), 5 (5=80-100%). The “AMARE percentage damage caused” value in assay [2] (62.5 g/ha) is given as 2 (2=20-39%); in assay [2] (1000 g/ha), 5 (5=80-100%). For the same compound, the entries for the “LOLPE percentage damage caused” value in the assay with Lolium perenne (LOLPE) (62.5 g/ha) and with Lolium perenne (LOLPE) (1000 g/ha) were 1 (1=0-19%) and 5 (5=80-100%), respectively. Also, the “SETFA percentage damage caused” value was 1 (1=0-19%) with Setaria faberi (SETFA) (62.5 g/ha) and 5 (5=80-100%) with Setaria faberi (SETFA) (1000 g/ha). For the same compound, the “ECHCG percentage damage caused” value in assay [3] (62.5 g/ha) is 3 (3=40-59%); in assay [3] (1000 g/ha), 5 (5=80-100%).

For `Cc1nn(C)c(=O)c(-c2c(F)ccc(Cl)c2OCc2nccs2)c1O` [Compound 1.25], the “SOLNI percentage damage caused” value with Solanum nigrum (SOLNI) (62.5 g/ha) and in the assay with Solanum nigrum (SOLNI) (1000 g/ha) was 5 (5=80-100%) throughout. The “IPOHE percentage damage caused” value in assay [1] (62.5 g/ha) and in assay [1] (1000 g/ha) was 5 (5=80-100%) each time. Further, the “AMARE percentage damage caused” value in assay [2] (62.5 g/ha) and in assay [2] (1000 g/ha) was 5 (5=80-100%) in each case. Also, the “LOLPE percentage damage caused” value in the assay with Lolium perenne (LOLPE) (62.5 g/ha) was 4 (4=60-79%); with Lolium perenne (LOLPE) (1000 g/ha), 5 (5=80-100%). The “SETFA percentage damage caused” value with Setaria faberi (SETFA) (62.5 g/ha) and in the assay on Setaria faberi (SETFA) (1000 g/ha) was 5 (5=80-100%) throughout. Also, the “ECHCG percentage damage caused” value in assay [3] (62.5 g/ha) is given as 4 (4=60-79%); in assay [3] (1000 g/ha), 5 (5=80-100%).

With `Cc1nc(COc2c(Cl)ccc(F)c2-c2c(O)c(C)nn(C)c2=O)cs1` [Compound 1.33], the results for the “SOLNI percentage damage caused” value with Solanum nigrum (SOLNI) (62.5 g/ha) and with Solanum nigrum (SOLNI) (1000 g/ha) were 4 (4=60-79%) and 5 (5=80-100%), respectively. Further, the figures for the “IPOHE percentage damage caused” value in assay [1] (62.5 g/ha) and in assay [1] (1000 g/ha) were 4 (4=60-79%) and 5 (5=80-100%), respectively. Further, the “AMARE percentage damage caused” value in assay [2] (62.5 g/ha) is recorded as 3 (3=40-59%); in assay [2] (1000 g/ha), 5 (5=80-100%). Moreover, the results for the “LOLPE percentage damage caused” value in the assay on Lolium perenne (LOLPE) (62.5 g/ha) and in the assay with Lolium perenne (LOLPE) (1000 g/ha) were 2 (2=20-39%) and 4 (4=60-79%), respectively. For the same compound, the “SETFA percentage damage caused” value with Setaria faberi (SETFA) (62.5 g/ha) was 2 (2=20-39%); with Setaria faberi (SETFA) (1000 g/ha), 5 (5=80-100%). The “ECHCG percentage damage caused” value was 3 (3=40-59%) in assay [3] (62.5 g/ha) and 4 (4=60-79%) in assay [3] (1000 g/ha).

For `Cc1csc(COc2c(Cl)ccc(F)c2-c2c(O)c(C)nn(C)c2=O)n1` [Compound 1.34], the “SOLNI percentage damage caused” value in the assay with Solanum nigrum (SOLNI) (62.5 g/ha) and with Solanum nigrum (SOLNI) (1000 g/ha) was 5 (5=80-100%) throughout. Further, the “IPOHE percentage damage caused” value in assay [1] (62.5 g/ha) and in assay [1] (1000 g/ha) was 5 (5=80-100%) each time. Also, the “AMARE percentage damage caused” value is recorded as 4 (4=60-79%) in assay [2] (62.5 g/ha) and 5 (5=80-100%) in assay [2] (1000 g/ha). Further, the “LOLPE percentage damage caused” value is listed as 3 (3=40-59%) in the assay on Lolium perenne (LOLPE) (62.5 g/ha) and 4 (4=60-79%) in the assay with Lolium perenne (LOLPE) (1000 g/ha). Moreover, the “SETFA percentage damage caused” value is reported as 4 (4=60-79%) in the assay with Setaria faberi (SETFA) (62.5 g/ha) and 5 (5=80-100%) with Setaria faberi (SETFA) (1000 g/ha). Further, the figures for the “ECHCG percentage damage caused” value in assay [3] (62.5 g/ha) and in assay [3] (1000 g/ha) were 4 (4=60-79%) and 5 (5=80-100%), respectively.

Turning to `Cc1nn(C)c(=O)c(-c2c(Cl)c(Cl)cc(Cl)c2OCc2cnc(Cl)s2)c1O` [Compound 5.01], the “SOLNI percentage damage caused” value in the assay on Solanum nigrum (SOLNI) (62.5 g/ha) and in the assay on Solanum nigrum (SOLNI) (1000 g/ha) was 5 (5=80-100%) throughout. Besides, the “IPOHE percentage damage caused” value in assay [1] (62.5 g/ha) and in assay [1] (1000 g/ha) was 5 (5=80-100%) each time. Besides, the “AMARE percentage damage caused” value in assay [2] (62.5 g/ha) was 3 (3=40-59%); in assay [2] (1000 g/ha), 5 (5=80-100%). For the same compound, the entries for the “LOLPE percentage damage caused” value in the assay on Lolium perenne (LOLPE) (62.5 g/ha) and in the assay on Lolium perenne (LOLPE) (1000 g/ha) were 2 (2=20-39%) and 5 (5=80-100%), respectively. For the same compound, the “SETFA percentage damage caused” value is recorded as 2 (2=20-39%) in the assay on Setaria faberi (SETFA) (62.5 g/ha) and 5 (5=80-100%) in the assay on Setaria faberi (SETFA) (1000 g/ha). In addition, the “ECHCG percentage damage caused” value was 2 (2=20-39%) in assay [3] (62.5 g/ha) and 5 (5=80-100%) in assay [3] (1000 g/ha).
